According to patent US9375496B2, “Halogenated compounds for cancer imaging and treatment and methods for their use” (The University of British Columbia, priority 2013, dated 2016):
Where two headings read alike, the source gives them in different places.

Assays:
AR = target: T1, AR (Homo sapiens, UniProt P10275, T878A); test: PSA(6.1 kb)-luciferase reporter assay in LNCaP cells (androgen-induced AR transcriptional activity); format: cell-based; conditions: LNCaP, PSA(6.1 kb)-luciferase, 1 h pre-treatment, R1881 1 nM 24 h
T1 construct: LNCaP cells with endogenous AR; endogenous in cells; host or cells: LNCaP
T1 sequence (P10275 1-920 T878A): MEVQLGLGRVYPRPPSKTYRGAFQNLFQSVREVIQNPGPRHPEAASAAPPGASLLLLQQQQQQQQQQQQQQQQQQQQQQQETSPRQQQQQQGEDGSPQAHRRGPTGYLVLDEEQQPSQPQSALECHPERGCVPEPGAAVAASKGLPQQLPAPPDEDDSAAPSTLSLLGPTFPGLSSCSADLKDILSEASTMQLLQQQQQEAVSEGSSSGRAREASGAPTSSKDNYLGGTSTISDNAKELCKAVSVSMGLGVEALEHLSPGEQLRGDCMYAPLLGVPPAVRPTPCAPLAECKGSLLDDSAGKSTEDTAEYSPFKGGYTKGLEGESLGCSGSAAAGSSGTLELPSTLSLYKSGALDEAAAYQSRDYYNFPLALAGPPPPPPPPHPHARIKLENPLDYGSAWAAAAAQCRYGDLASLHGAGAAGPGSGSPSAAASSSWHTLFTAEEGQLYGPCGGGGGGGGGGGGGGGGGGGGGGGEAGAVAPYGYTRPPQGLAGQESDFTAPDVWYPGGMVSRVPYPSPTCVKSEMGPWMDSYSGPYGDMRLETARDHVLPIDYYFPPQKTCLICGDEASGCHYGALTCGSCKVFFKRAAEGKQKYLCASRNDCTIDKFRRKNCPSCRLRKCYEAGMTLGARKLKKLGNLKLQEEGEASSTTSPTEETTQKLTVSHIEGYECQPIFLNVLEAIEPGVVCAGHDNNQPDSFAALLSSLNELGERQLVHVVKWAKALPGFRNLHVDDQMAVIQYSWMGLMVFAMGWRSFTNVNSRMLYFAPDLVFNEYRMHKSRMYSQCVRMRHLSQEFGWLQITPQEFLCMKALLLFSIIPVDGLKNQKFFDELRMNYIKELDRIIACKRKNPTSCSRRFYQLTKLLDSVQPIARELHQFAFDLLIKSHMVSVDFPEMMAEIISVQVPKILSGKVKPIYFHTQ
Procedure: The PSA-luciferase (6.1 kb) reporter contains functional AREs to which AR binds in response to androgen to induce luciferase activity. LNCaP cells were transfected with the PSA(6.1 kb)-luciferase reporter for 24 h, and then treated with indicated concentration of 8d (also referred as EPI-iodide or iodinated EPI) with synthetic androgen, R1881 (1 nM) for 24 h. After 24 h of incubation with R1881, the cells were harvested, and relative luciferase activities were determined (FIG. 1A). To determine the IC50, treatments were normalized to the predicted maximal activity induction (in the absence of test compounds, vehicle only) (FIG. 1B).
To measure effect on AR, after the LNCaP cells were transfected with the PSA(6.1 kb)-luciferase reporter for 24 h, they were then treated with DMSO, 5 μM MDV3100, 25 μM Z (also referred to as EPI-002 or EPI), or 1.9 μM 8d with or without 1 nM R1881 for 24 h (FIG. 2A).
LNCaP cells were transiently transfected with PSA (6.1 kb)-luciferase for 24 h prior to pre-treatment with compounds of the invention (e.g., compounds 9d, 10d, 11d) ranging in concentration from 62.5 ng/ml to 1.5 ug/ml for 1 hour before the addition of vehicle, or synthetic androgen, R1881 (1 nM) to induce luciferase production. After 24 h of incubation with R1881, the cells were harvested, and relative luciferase activities were determined. To determine the IC50, treatments were normalized to the predicted maximal activity induction (in the absence of test compounds, vehicle only) (FIG. 1B).

[1] = target: T2, recombinant protein AR activation function-1 (AF1) (Homo sapiens, UniProt P10275); test: Covalent binding to recombinant AR AF1 evaluated by SDS-PAGE
T2 sequence (P10275 144-486 limits assumed): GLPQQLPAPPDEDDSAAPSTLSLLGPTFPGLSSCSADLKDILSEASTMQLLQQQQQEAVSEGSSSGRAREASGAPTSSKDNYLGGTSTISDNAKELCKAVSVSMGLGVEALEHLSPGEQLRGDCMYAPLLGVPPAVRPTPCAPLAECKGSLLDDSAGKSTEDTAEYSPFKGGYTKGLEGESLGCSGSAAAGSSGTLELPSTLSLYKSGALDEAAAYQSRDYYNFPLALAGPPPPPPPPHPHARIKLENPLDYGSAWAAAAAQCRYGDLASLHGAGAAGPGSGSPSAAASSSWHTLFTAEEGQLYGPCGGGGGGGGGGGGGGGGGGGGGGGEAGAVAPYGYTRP
Procedure: Covalent binding experiments of 1d (also referred to as ^123I-EPI) to recombinant protein AR activation function-1 (AF1) was evaluated by SDS-PAGE (FIG. 15). After 6 h incubation at room temperature, 1d bound to the recombinant protein AR AF1. Less binding of 1d was observed when AR AF1 was pre-incubated with cold Z which is thought to bind to the same site as 1d. The SDS-PAGE gel was stained with Coomassie blue for loading control of the amount of AF1 protein.

[2] = Trial 1, read-out: IC50 Trial 1
[3] = Trial 2, read-out: IC50 Trial 2
[4] = Trial 3, read-out: IC50 Trial 3
[5] = Trial 4, read-out: IC50 Trial 4
[6] = average of 4 trials, read-out: IC50 Average

| IC50 (AR; [2]) [µM] | IC50 (AR; [3]) [µM] | IC50 (AR; [4]) [µM] | IC50 (AR; [5]) [µM] | IC50 (AR; [6]) [µM] | Structure (SMILES) | covalent binding to recombinant protein AR AF1 ([1]; 6 h incubation at room temperature) | binding to AR AF1 after pre-incubation with cold Z ([1]; AR AF1 pre-incubated with cold Z) |
| --- | --- | --- | --- | --- | --- | --- | --- |
| 2.07 | 2.74 | 2.96 | 3.36 | 2.78 | CC(C)(c1ccc(OC[C@H](O)CO)cc1)c1ccc(OC[C@H](O)CCl)c(Br)c1 [Compound 9d, (R)-3-(4-(2-(3-bromo-4-((S)-3-chloro-2-hydroxypropoxy)phenyl)propan-2-yl)phenoxy)propane-1,2-diol] | – | – |
| 2.53 | 2.3 | 2.81 | 2.84 | 2.62 | CC(C)(c1ccc(OC[C@H](O)CO)cc1)c1ccc(OC[C@H](O)CCl)c(Cl)c1 [Compound 10d, (R)-3-(4-(2-(3-chloro-4-((S)-3-chloro-2-hydroxypropoxy)phenyl)propan-2-yl)phenoxy)propane-1,2-diol] | – | – |
| – | – | – | – | – | CC(C)(c1ccc(OC[C@H](O)CO)cc1)c1ccc(OC[C@H](O)CCl)c([123I])c1 [Compound 1d, (R)-3-(4-(2-(4-((S)-3-chloro-2-hydroxypropoxy)-3- ^123iodophenyl)propan-2-yl)phenoxy)propane-1,2-diol] | bound | Less binding |
| 5.95 | 3.6 | 7.33 | 5.4 | 5.57 | CC(C)(c1ccc(OC[C@H](O)CO)cc1)c1ccc(OC[C@H](O)CCl)c(F)c1 [Compound 11d, (R)-3-(4-(2-(4-((S)-3-chloro-2-hydroxypropoxy)-3-fluorophenyl)propan-2-yl)phenoxy)propane-1,2-diol] | – | – |
